From patent US7968558B2, “Amidine derivatives of 2-heteroaryl-quinazolines and quinolines; potent analgesics and anti-inflammatory agents” (Rottapharm S.p.A., priority 2006, dated 2011)

Key:
[1] = system: IL-1β induced PGE2 production; assay: PGE2 production induced by IL-1β in chondrocyte cell culture; assay type: cell-based, rabbit; conditions: Oryctolagus cuniculus, Chondrocyte, read-out: Effects on PGE2 production in rabbit Chondrocyte culture, IC50
Excerpt: (§1) Conversely, compounds of the invention are able to inhibit, at micromolar concentration, IL-1β induced PGE2 production in cellular systems. This inhibition effect on the production of the pro-inflammatory mediator PGE2, instead of to be ascribed to a direct COX-2 inhibition, as happens with Celecoxib and other COX-2 inhibitors, is in this case due to inhibition of cytokine induced COX-2 expression as proven in cellular systems.
(§2) Effectiveness in inhibition of PGE2 production induced by IL-1β in chondrocyte cell culture, as well as inhibition in IL-1β induced COX-2 expression in SW1353 human chondrosarcoma cell line, is summarized in Table 2, for representative compounds of the invention.

COX-2 expression = assay: IL-1β induced COX-2 expression in SW1353 human chondrosarcoma cell line; assay type: cell-based; conditions: Homo sapiens, SW1353, read-out: Inhibition of COX-2 expression in SW1353 human chondrosarcoma cell line, IC50
Excerpt: as §1, §2

[2] = system: Zymosan-induced mechanical hyperalgesia; assay: Zymosan-induced mechanical hyperalgesia (Randall-Selitto); assay type: in vivo, rat; conditions: oral
Description: The interplantar injection of Zymosan-induced mechanical hyperalgesia was used as a model of inflammatory pain (Meller, Neuropharmacology, 1994, 33, 1471-1478). In this model, typically a male Sprague-Dawley or Wistar rat (200-250 g) receives an interplantar injection of 3 mg/100 μl zymosan into one hind paw. A marked inflammation occurs in this hind paw. Drugs are administered orally for evaluation of efficacy, 30 min. before the inflammatory insult. The hyperalgesia induced by zymosan administration was evaluated using the Randall-Selitto method (Arch. Int. Pharmacodyn., 1957, 111, 409). The quantitation of the analgesic effect is achieved by an analgesimeter, which consist in applying to the inflamed paw an increasing weight (from 130-140 g up to 500 g). The difference in the mechanical pain threshold between the basal value (generally 230-250 g) and the one tolerated by the animals treated with the drug, determined 4 hours after the inflammatory challenge, is defined as mechanical hyperalgesia.
Mechanical hyperalgesia is expressed for the compounds of the invention as ED50, which is the dose of the administered compound able to increase the pain threshold by 50% in comparison with the group of control animals. The corresponding ED100, representing the dose able of reducing of 100% the pain threshold, can be calculated for those cases where there is a linear dose-response relationship. In vivo anti-inflammatory effect exerted by the compound of the invention can be assessed in the same Zymosan induced inflammation test described above, by measuring the volume of the oedema induced by the inflammatory agent. The oedema was evaluated as the increase in the volume of the Zymosan injected paw within a time of 0-2 hrs. The measurements of the variation of the oedema volume of the paw were recorded using hydroplethysmometer, which consists of two plastic cuvettes containing a surfactant liquid, the larger one being used for immersion of the paw, connected to the smaller one which contains a trans-ducer capable of recording small displacements of the volume used for the measure. The paw is immersed in the cuvettes up to the tibiotarsal joint. The volume of the liquid displaced is proportional to the extent of the inflammation. The efficacy of the compounds of the invention in preventing oedema formation is expressed as ED30, and is measured 2 hours after the inflammatory challenge, and represents the dose able of reducing of 30%, the Zymosan induced paw volume increase in comparison to control animals (animals treated with Zymosan but treated with only distilled water instead of the testing compound). The corresponding ED50, representing the dose able of reducing of 50% the zymosan induced paw volume increase, can be calculated for those cases where there is a linear dose-response relationship.
In both the experiments, for each test compound, at least three doses were used, with 10 animals per group. Compounds of the invention were tested at 10, 20 and 40 mg/Kg.

CFA-induced hyperalgesia = assay: CFA model of chronic inflammatory pain; assay type: in vivo, rat
[3] = system: acetic acid-induced abdominal writhes; assay: Acetic acid-induced writhing test; assay type: in vivo, mice; conditions: for MPE (%): 30 min. before acetic acid
Description: With the aim of assessing whether the compounds of the invention are able to inhibit responses to peritoneal irritation-induced visceral pain, the acetic acid-induced writhing assay was used in mice to determine the degree of anti-nociception.
The writhing test is a model of inflammatory pain that has long been used as a screening tool for evaluation of analgesic and anti-inflammatory agents (HDJ Collier, B. J. Pharmacol Chemother., 1968, 32, 295-310). The test was performed inducing nociception by an i.p. injection of acetic acid 1%, 0.1 mL/10 g of body weight. Mice were pre-treated (subcutaneously, s.c., three different doses: 3, 10, 30 mg/Kg) with the tested compounds 30 min. before acetic acid injection, while control animals received a similar volume of saline solution. A group of mice was treated with Paracetamol (200 mg/Kg, s.c.) as reference drug. The number of abdominal writhes (full extension of both hind paws) was cumulatively counted every 5 minutes over a period of 20 min. immediately after the acetic acid injection. The anti-nociceptive activity was expressed as inhibition of abdominal writhes as maximum percent effect (MPE), which represents the difference (%) in pain threshold between the animals treated with the drug and the ones that received only the vehicle.

**Q.** Which IC50 [1] does the source give for `CC(=N)Nc1ccc2nc(-c3ccc4c(c3)OCO4)ncc2c1` [Example 1, N-[2-(1,3-benzodioxol-5-yl)quinazolin-6-yl]acetamidine] here?
**A.** 4.1 µM

**Q.** And the IC50 (COX-2 expression)?
**A.** 4.6 µM

**Q.** What about the ED50 ([2]; Rattus norvegicus, 30 min before zymosan, 4 hours after challenge, read-out: Analgesia ED50) of the same compound?
**A.** 6 mg/kg

**Q.** And the “Analgesia ED100” value ([2]; calculated from linear dose-response)?
**A.** 18 mg/kg

**Q.** And the “MPE 0.5 hrs.” value (CFA-induced hyperalgesia; 3 mg/Kg i.p.)?
**A.** 9%

**Q.** What about the “MPE 0.5 hrs.” value (CFA-induced hyperalgesia; 10 mg/Kg i.p.) of the same compound?
**A.** 28%

**Q.** And the “MPE 1.5 hrs.” value (CFA-induced hyperalgesia; 10 mg/Kg i.p.)?
**A.** 47%

**Q.** And the “MPE 3 hrs.” value (CFA-induced hyperalgesia; 10 mg/Kg i.p.)?
**A.** 15%

**Q.** What about the “MPE 6 hrs.” value (CFA-induced hyperalgesia; 10 mg/Kg i.p.) of the same compound?
**A.** 30%

**Q.** And the “MPE 0.5 hrs.” value (CFA-induced hyperalgesia; 30 mg/Kg i.p.)?
**A.** 418%

**Q.** And the “MPE 1.5 hrs.” value (CFA-induced hyperalgesia; 30 mg/Kg i.p.)?
**A.** 395%

**Q.** And the “MPE 3 hrs.” value (CFA-induced hyperalgesia; 30 mg/Kg i.p.)?
**A.** 384%

**Q.** What about the “MPE 6 hrs.” value (CFA-induced hyperalgesia; 30 mg/Kg i.p.) of the same compound?
**A.** 132%

**Q.** And the “MPE 24 hrs.” value (CFA-induced hyperalgesia; 30 mg/Kg i.p., 24 hrs.)?
**A.** 60%

**Q.** And the “MPE (%)” value ([3]; 3 mg/Kg s.c.)?
**A.** 30%

**Q.** And the “MPE (%)” value ([3]; 10 mg/Kg s.c.)?
**A.** 33%

**Q.** And the “MPE (%)” value ([3]; 30 mg/Kg s.c.)?
**A.** 89%

**Q.** And the ED50 ([3]; Mus musculus, sc, writhing test, read-out: ED50)?
**A.** 9.8 mg/kg
